Data on 4 molecules can be found in publication PMC10544029, “Design, Synthesis, and Application of Fluorescent Ligands Targeting the Intracellular Allosteric Binding Site of the CXC Chemokine Receptor 2” (Journal of Medicinal Chemistry, 2023).

A short description of series [1]: Chemical stability on purification and isolation. In kind it is physicochemical. The following applies: purification by normal and reverse-phase chromatography.
Another series concerns the target T1, CXCR1 (Homo sapiens, UniProt P25024).
T1 construct: expressed in transfected cells; membranes
T1 sequence (P25024 1-350): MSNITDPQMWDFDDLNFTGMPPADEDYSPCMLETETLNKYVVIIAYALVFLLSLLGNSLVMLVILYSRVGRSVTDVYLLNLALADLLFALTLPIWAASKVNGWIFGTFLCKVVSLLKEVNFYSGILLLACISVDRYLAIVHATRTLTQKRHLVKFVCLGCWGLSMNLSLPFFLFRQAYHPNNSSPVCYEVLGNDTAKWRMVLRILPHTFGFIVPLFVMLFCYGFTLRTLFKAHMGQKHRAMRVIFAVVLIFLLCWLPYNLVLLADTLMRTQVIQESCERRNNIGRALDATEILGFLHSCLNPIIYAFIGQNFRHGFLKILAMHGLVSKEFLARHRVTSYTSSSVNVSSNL
Description: CXCR1-NanoLuc NanoBRET saturation binding in membranes. The following applies: result in words. How it is done: NanoBRET assays were carried out in OptiPlate-384 white well microplates (product number: 6007290, PerkinElmer LAS Ltd., UK) and used 25 mM HEPES, 1% DMSO, 0.1 mg/mL Saponin, 0.2 mg Pluronic acid F127, 1 mM MgCl2 and 0.1% BSA (pH 7.4) assay buffer. Both saturation and competition assays employed 1 μg/well HEK 293 SNAP-CXCR2-NanoLuc or SNAP-CXCR1-NanoLuc cell membranes for characterization of fluorescent ligand binding and employed 100 nM or 10 μM R-navarixin (2) to define non-specific binding (NSB). […] Membranes were incubated with furimazine at a 1/660 dilution for 5 min prior to addition to the assay plate, allowing for equilibration of luminescence output. NanoBRET was monitored every 15 s for 60 min at 37 °C measuring Nanoluciferase output (450 nm) and BODIPY 630–650 output (630 nm [610-LP filter]), generating a BRET ratio (630 nm/450 nm), using a BMG PHERAstar FS (BMG Labtech). Collected data was converted to specific binding measurements through subtraction of NSB data and analyzed by endpoint saturation analysis, allowing determination of ligand dissociation constant (KD) through [drawing 1] 1

The test system of series [2] is SNAP-tagged CXCR2-tsNanoLuc HEK293. Description: Live cell imaging of fluorescent ligand binding to SNAP-tagged CXCR2-tsNanoLuc HEK293. The series is classed as cell-based, human. The following applies: 1 μM 11a, 10 min at 37 °C, specific, displaced by 10 μM 2. How it is done: HEK 293 cells expressing SNAP-CXCR2-tsNanoLuc were seeded on black, clear bottom, poly-D-lysine-coated 96-well plates (Greiner 655097) at a density of 30,000 cells/well and allowed to grow overnight. Post-incubation, growth media were replaced with Hepes balances salt solution supplemented with 0.1% BSA (HBSS +0.1% BSA), 0.1 μM SNAP-surface AF488, 2 μg/mL Hoechst 33342 nuclear stain (H33342), and either HBSS +0.1% BSA or 10 μM (R)-navarixin (2).

Consider `CC[C@@H](Nc1c(Nc2cccc(C(=O)N(C)CCNC(=O)OCC3c4ccccc4-c4ccccc43)c2O)c(=O)c1=O)c1ccc(C)o1` [10b, (9H-Fluoren-9-yl)methyl(R)-(2-(2-hydroxy-N-methyl-3-((2-((1-(5-methylfuran-2-yl)propyl)amino)-3,4-dioxocyclobut-1-en-1-yl)amino)benzamido)ethyl)carbamate], for which, in series [1], the chemical stability entry was “chemically unstable”.

In the case of `CC[C@@H](Nc1c(Nc2cccc(C(=O)NCCNC(=O)CCCCCNC(=O)COc3ccc(/C=C/C4=[N+]5C(=Cc6ccc(-c7cccs7)n6[B-]5(F)F)C=C4)cc3)c2O)c(=O)c1=O)c1ccc(C)o1` [11a, (R,E)-N-(2-(6-(2-(4-(2-(5,5-Difluoro-7-(thiophen-2-yl)-5H-4λ4,5λ4-dipyrrolo[1,2-c:2’,1’-f][1,3,2]diazaborinin-3-yl)vinyl)phenoxy)acetamido)hexanamido)ethyl)-2-hydroxy-3-((2-((1-(5-methylfuran-2-yl)propyl)amino)-3,4-dioxocyclobut-1-en-1-yl)amino)benzamide], the CXCR1 specific binding entry on CXCR1 is listed as “no CXCR1 specific binding”. The “fluorescent labelling of cells” value in series [2] was “both cell surface and intracellular endosomal fluorescent labelling”.

With `CC[C@@H](Nc1c(Nc2cccc(C(=O)NCCNC(=O)CNC(=O)CCCCCNC(=O)COc3ccc(/C=C/C4=[N+]5C(=Cc6ccc(-c7cccs7)n6[B-]5(F)F)C=C4)cc3)c2O)c(=O)c1=O)c1ccc(C)o1` [11c, (R,E)-N-(2-(2-(6-(2-(4-(2-(5,5-Difluoro-7-(thiophen-2-yl)-5H-4λ4,5λ4-dipyrrolo[1,2-c:2′,1′-f][1,3,2]diazaborinin-3-yl)vinyl)phenoxy)acetamido)hexanamido)acetamido)ethyl)-2-hydroxy-3-((2-((1-(5-methylfuran-2-yl)propyl)amino)-3,4-dioxocyclobut-1-en-1-yl)amino)benzamide], the CXCR1 specific binding result on CXCR1 was “no CXCR1 specific binding”.

In the case of `CC[C@@H](Nc1c(Nc2cccc(C(=O)NCCNC(=O)CCNC(=O)CCCCCNC(=O)COc3ccc(/C=C/C4=[N+]5C(=Cc6ccc(-c7cccs7)n6[B-]5(F)F)C=C4)cc3)c2O)c(=O)c1=O)c1ccc(C)o1` [11e, (R,E)-N-(2-(3-(6-(2-(4-(2-(5,5-Difluoro-7-(thiophen-2-yl)-5H-4λ4,5λ4-dipyrrolo[1,2-c:2′,1′-f][1,3,2]diazaborinin-3-yl)vinyl)phenoxy)acetamido)hexanamido)propanamido)ethyl)-2-hydroxy-3-((2-((1-(5-methylfuran-2-yl)propyl)amino)-3,4-dioxocyclobut-1-en-1-yl)amino)benzamide], the CXCR1 specific binding result at CXCR1 is “no CXCR1 specific binding”.
